For Nc1ncnc2c1c(-c1ccc(Oc3ccccc3)cc1)cn2C1CCC2(CC1)OCCO2 [Example 174, 5-(4-Phenoxyphenyl)-7-(1,4-dioxaspiro[4,5]decan-8-yl)-7H-pyrrolo[2,3-d]pyrimidin-4-ylamine], the melting point was 193 to 194 °C.
In the case of Cl.Cl.Nc1ncnc2c1c(-c1ccc(Oc3ccccc3)cc1)cn2C1CCNC1 (stereo not shown) (hydrate or solvate), the melting point is reported as 298 °C (dec.).
In the case of Cl.Cl.Nc1ncnc2c1c(-c1ccc(Oc3ccccc3)cc1)cn2C1CNOC1 (stereo not shown), the melting point is reported as 208 °C (dec.).
COCCCNc1cccc(Oc2ccc(-c3cn(C4CCOC4)c4ncnc(N)c34)cc2)c1C#N (stereo not shown) [Example 41, 2-[4-(4-Amino-7-(3-tetrahydrofuryl)-7H-pyrrolo[2,3-d]pyrimidin-5-yl)phenoxy]-6-(3-methoxypropylamino)benzonitrile] gave a melting point of 183 to 184 °C.
In the case of CC(C)C(=O)n1cc(-c2ccc(Oc3ccccc3)cc2)c2c(N)ncnc21 [Example 173, 7-Isobutyryl-5-(4-phenoxyphenyl)-7H-pyrrolo[2,3-d]pyrimidin-4-ylamine], the melting point is reported as 160.5 to 161 °C.
Work on Nc1ncnc2c1c(-c1ccc(Oc3ccccc3)cc1)cn2CC(=O)NCCN1CCOCC1 [Example 153, N-(2-Morpholinoethyl)-2-[4-amino-5-(4-phenoxyphenyl)-7H-pyrrolo[2,3-d]pyrimidin-7-yl]acetamide] yielded a melting point of 164 to 165 °C.
N#Cc1cccnc1-n1cc(-c2ccc(Oc3ccccc3)cc2)c2c(N)ncnc21 [Example 180, 2-[4-Amino-5-(4-phenoxyphenyl)-7H-pyrrolo[2,3-d]pyrimidin-7-yl]pyridine-3-carbonitrile] gave a melting point of 242 to 242.5 °C.
CCOC(=O)Cn1cc(-c2ccc(Oc3ccccc3)cc2)c2c(N)ncnc21 [Example 150, Ethyl 2-[4-Amino-5-(4-phenoxyphenyl)-7H-pyrrolo[2,3-d]pyrimidin-7-yl]acetate] gave a melting point of 161 to 161.3 °C.
With Nc1ncnc2c1c(-c1ccc(Oc3ccccc3)cc1)cn2CC(=O)NCCOCCO [Example 156, N-[-2(2-hydroxyethoxy)ethyl]-2-[4-amino-5-(4-phenoxyphenyl)-7H-pyrrolo[2,3-d]-pyrimidin-7-yl]acetamide] the melting point was 145 to 147 °C.
For COc1cc(-c2cn([C@H]3CC[C@H](N4CCN(C)CC4)CC3)c3ncnc(N)c23)ccc1NC(=O)OCc1ccccc1.O=C(O)/C=C\C(=O)O.O=C(O)/C=C\C(=O)O.O=C(O)/C=C\C(=O)O, the melting point was 146 to 148 °C.
For Nc1ncnc2c1c(-c1ccc(Oc3ccccc3)cc1)cn2[C@H]1CC[C@@H](N2CCCC2)CC1 [Example 193, cis-5-(4-Phenoxyphenyl)-7-(4-pyrrolidinocyclohex-1-yl)-7H-pyrrolo[2,3-d]pyrimidin-4-ylamine], the melting point was 101 to 104 °C.
N#Cc1c(NCCc2ccncc2)cccc1Oc1ccc(-c2cn(C3CCOCC3)c3ncnc(N)c23)cc1 [Example 51, 2-[4-(4-Amino-7-(4-tetrahydropyranyl)-7H-pyrrolo[2,3-d]pyrimidin-5-yl)phenoxy]-6-(2-(4-pyridyl)ethylamino)benzonitrile] gave a melting point of 120 to 123 °C.
In the case of COCCNCc1ccccc1Oc1ccc(-c2cn(C3CCOC3)c3ncnc(N)c23)cc1 (stereo not shown) [Example 33, 5-{4-[2-(2-Methoxyethyl)aminomethylphenoxy]phenyl}-7-(3-tetrahydrofuryl)-7H-pyrrolo[2,3-d]-pyrimidin-4-ylamine], the melting point is reported as 66 to 68 °C.
